Structures can show the parent of a compound that is named as a salt.
Test: Acute toxicity test (LD50) in mice
Details: mouse, in vivo
Protocol: 4-(3-tert.-Butylamino-2-hydroxypropoxy)-2-methyl-1-isoquinolinone hydrochloride and 4-(3-tert.-butylamino-2-hydroxypropoxy)-1-isoquinolinonehydrochloride, respectively were administered to mice to determine the LD50 value.

Row | SMILES | LD50 (ip, intraperitoneal, female) [mg/kg] | LD50 (ip, intraperitoneal, male) [mg/kg] | LD50 (po, female) [mg/kg] | LD50 (po, male) [mg/kg]
1 | CC(C)(C)NCC(O)COc1c[nH]c(=O)c2ccccc12 (centres unmarked) [4-(3-tert.-butylamino-2-hydroxypropoxy)-1-isoquinolinonehydrochloride] | 367 | 382 | 2470 | 2810
2 | Cl.Cn1cc(OCC(O)CNC(C)(C)C)c2ccccc2c1=O (centres unmarked) [4-(3-tert.-butylamino-2-hydroxypropoxy)-2-methyl-1-isoquinolinone hydrochloride] | 557 | 578 | 1290 | 1390
